From patent US7709482B2, “Polycyclic heteroaryl substituted triazoles useful as Axl inhibitors” (Rigel Pharmaceuticals, Inc., priority 2006, dated 2010)
pIC50: −log10 of the molar value.

Target: T1, Axl (Homo sapiens, UniProt P30530)
T1 construct: endogenous in cells; host or cells: HeLa cells
T1 sequence (P30530 26-894): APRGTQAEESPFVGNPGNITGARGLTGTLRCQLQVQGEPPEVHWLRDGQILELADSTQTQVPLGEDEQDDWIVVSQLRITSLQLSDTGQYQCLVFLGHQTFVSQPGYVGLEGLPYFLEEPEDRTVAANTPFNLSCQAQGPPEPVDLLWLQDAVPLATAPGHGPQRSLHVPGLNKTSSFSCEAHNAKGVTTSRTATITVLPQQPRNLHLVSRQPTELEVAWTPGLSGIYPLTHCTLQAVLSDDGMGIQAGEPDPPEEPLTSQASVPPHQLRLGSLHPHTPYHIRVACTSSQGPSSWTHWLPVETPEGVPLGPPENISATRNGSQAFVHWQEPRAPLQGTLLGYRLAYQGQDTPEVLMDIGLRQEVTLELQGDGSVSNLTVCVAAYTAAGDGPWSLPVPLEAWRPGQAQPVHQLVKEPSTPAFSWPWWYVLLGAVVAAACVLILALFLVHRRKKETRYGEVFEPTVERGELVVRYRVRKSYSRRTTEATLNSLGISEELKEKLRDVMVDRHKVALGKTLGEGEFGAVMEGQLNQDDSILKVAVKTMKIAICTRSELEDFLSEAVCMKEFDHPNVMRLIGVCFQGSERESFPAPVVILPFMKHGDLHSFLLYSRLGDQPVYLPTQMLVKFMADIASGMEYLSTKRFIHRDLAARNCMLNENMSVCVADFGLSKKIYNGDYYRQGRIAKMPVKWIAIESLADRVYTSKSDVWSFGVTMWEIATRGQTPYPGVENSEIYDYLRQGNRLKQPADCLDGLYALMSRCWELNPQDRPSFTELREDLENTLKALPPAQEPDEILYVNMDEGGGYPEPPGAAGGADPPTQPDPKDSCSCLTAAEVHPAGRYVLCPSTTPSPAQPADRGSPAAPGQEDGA
Test: Phospho-Akt In-Cell Western Assay (inhibition of Axl activity after Axl-antibody cross-linking)
Type: cell-based
Conditions: inhibition of Axl activity; Table 1, compounds of formula (Ia); read-out: IC50
Summary of the method: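 Phospho-Akt was detected in formaldehyde-fixed cells by in-cell immunostaining with HRP chemiluminescence. Before fixation, HeLa cells kept 24 h in low-serum medium containing 500 ng/mL Axl/Fc received compound for 1 h at 37 °C, followed by 5-min Axl activation through antibody clustering.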

pIC50 | Compound
> 6.00 | Nc1nc(Nc2ccc(C=CCN3CCC(N4CCCC4)CC3)cc2)nn1-c1cc2c(nn1)-c1ccccc1CCC2 [Compound 203, 1-(6,7-dihydro-5H-benzo[6,7]cyclohepta[1,2-c]pyridazin-3-yl)-N^3-(4-(4-pyrrolidin-1-ylpiperidin-1-ylprop-1-enyl)phenyl)-1H-1,2,4-triazole-3,5-diamine]
> 6.00 | CN1CCN(CC=Cc2ccc(Nc3nc(N)n(-c4cc5c(nn4)-c4ccccc4CCC5)n3)cc2)CC1 [Compound 204, 1-(6,7-dihydro-5H-benzo[6,7]cyclohepta[1,2-c]pyridazin-3-yl)-N^3-(4-(4-methylpiperazin-1-ylprop-1-enyl)phenyl)-1H-1,2,4-triazole-3,5-diamine]
> 6.00 | CC(C)N1CCN(CC=Cc2ccc(Nc3nc(N)n(-c4cc5c(nn4)-c4ccccc4CCC5)n3)cc2)CC1 [Compound 205, 1-(6,7-dihydro-5H-benzo[6,7]cyclohepta[1,2-c]pyridazin-3-yl)-N^3-(4-(4-isopropylpiperazin-1-ylprop-1-enyl)phenyl)-1H-1,2,4-triazole-3,5-diamine]
> 6.00 | Nc1nc(Nc2ccc(C=CCN3CCN(C4CCCC4)CC3)cc2)nn1-c1cc2c(nn1)-c1ccccc1CCC2 [Compound 206, 1-(6,7-dihydro-5H-benzo[6,7]cyclohepta[1,2-c]pyridazin-3-yl)-N^3-(4-(4-cyclopentylpiperazin-1-ylprop-1-enyl)phenyl)-1H-1,2,4-triazole-3,5-diamine]
> 6.00 | Nc1nc(Nc2ccc(C=CCN3CCOCC3)cc2)nn1-c1cc2c(nn1)-c1ccccc1CCC2 [Compound 207, 1-(6,7-dihydro-5H-benzo[6,7]cyclohepta[1,2-c]pyridazin-3-yl)-N^3-(4-(morpholin-4-ylprop-1-enyl)phenyl)-1H-1,2,4-triazole-3,5-diamine]
5.00 to 6.00 | CCN(CC)CCC1CCCc2ccc(Nc3nc(N)n(-c4cc5c(nn4)-c4ccccc4CCC5)n3)cc2C1O (stereo not shown) [Compound 208, 1-(6,7-dihydro-5H-benzo[6,7]cyclohepta[1,2-c]pyridazin-3-yl)-N^3-(8-diethylaminoethyl-9-hydroxy-6,7,8,9-tetrahydro-5H-benzo[7]annulene-2-yl)-1H-1,2,4-triazole-3,5-diamine]
> 6.00 | CN1CCN(c2ccc(Nc3nc(N)n(-c4cc5c(nn4)-c4ccccc4CCC5)n3)cc2F)CC1 [Compound 209, 1-(6,7-dihydro-5H-benzo[6,7]cyclohepta[1,2-c]pyridazin-3-yl)-N^3-(3-fluoro-4-(4-methylpiperazin-1-yl)phenyl)-1H-1,2,4-triazole-3,5-diamine]
> 6.00 | CN1CCCC(Oc2ccc(Nc3nc(N)n(-c4cc5c(nn4)-c4ccccc4CCC5)n3)cc2)C1 (stereo not shown) [Compound 210, 1-(6,7-dihydro-5H-benzo[6,7]cyclohepta[1,2-c]pyridazin-3-yl)-N^3-(4-(1-methylpiperidin-3-yl-oxy)phenyl)-1H-1,2,4-triazole-3,5-diamine]
< 4.70 | Nc1nc(Nc2ccc(C3CCN(C4CC5CCC4C5)CC3)cc2)nn1-c1cc2c(nn1)-c1ccccc1CCC2 (stereo not shown) [Compound 211, 1-(6,7-dihydro-5H-benzo[6,7]cyclohepta[1,2-c]pyridazin-3-yl)-N^3-(4-(1-bicyclo[2.2.1]heptan-2-yl)-piperidin-4-ylphenyl)-1H-1,2,4-triazole-3,5-diamine]
> 6.00 | Nc1nc(Nc2ccc(C3CCN(CC4CC4)CC3)cc2)nn1-c1cc2c(nn1)-c1ccccc1CCC2 [Compound 212, 1-(6,7-dihydro-5H-benzo[6,7]cyclohepta[1,2-c]pyridazin-3-yl)-N^3-(4-(1-cyclopropylmethylpiperidin-4-yl)phenyl)-1H-1,2,4-triazole-3,5-diamine]
> 6.00 | Nc1nc(Nc2ccc3c(c2)CNCC3)nn1-c1cc2c(nn1)-c1ccccc1CCC2 [Compound 213, 1-(6,7-dihydro-5H-benzo[6,7]cyclohepta[1,2-c]pyridazin-3-yl)-N^3-(1,2,3,4-tetrahydroisoquinolin-7-yl)-1H-1,2,4-triazole-3,5-diamine]
> 6.00 | Nc1nc(Nc2ccc(N3CCN(CC4CC4)CC3)c(F)c2)nn1-c1cc2c(nn1)-c1ccccc1CCC2 [Compound 214, 1-(6,7-dihydro-5H-benzo[6,7]cyclohepta[1,2-c]pyridazin-3-yl)-N^3-(3-fluoro-4-(4-cyclopropylmethylpiperazin-1-yl)phenyl)-1H-1,2,4-triazole-3,5-diamine]
> 6.00 | CN1CCC(N2CCc3ccc(Nc4nc(N)n(-c5cc6c(nn5)-c5ccccc5CCC6)n4)cc3C2)CC1 [Compound 215, 1-(6,7-dihydro-5H-benzo[6,7]cyclohepta[1,2-c]pyridazin-3-yl)-N^3-(2-(1-methylpiperidin-4-yl)-1,2,3,4-tetrahydroisoquinolin-7-yl)-1H-1,2,4-triazole-3,5-diamine]
> 6.00 | Nc1nc(Nc2ccc3c(c2)CN(CC2CC2)CC3)nn1-c1cc2c(nn1)-c1ccccc1CCC2 [Compound 216, 1-(6,7-dihydro-5H-benzo[6,7]cyclohepta[1,2-c]pyridazin-3-yl)-N^3-(2-(cyclopropylmethyl)-1,2,3,4-tetrahydroisoquinolin-7-yl)-1H-1,2,4-triazole-3,5-diamine]
> 6.00 | Nc1nc(Nc2ccc3c(c2)CCC(N2CC[C@H](F)C2)CC3)nn1-c1cc2c(nn1)-c1ccccc1CCC2 (stereo partly drawn) [Compound 217, 1-(6,7-dihydro-5H-benzo[6,7]cyclohepta[1,2-c]pyridazin-3-yl)-N^3-(7-(3-(S)-fluoropyrrolidin-1-yl)-6,7,8,9-tetrahydro-5H-benzo[7]annulene-2-yl)-1H-1,2,4-triazole-3,5-diamine]
> 6.00 | C[C@H]1CCCN1C1CCc2ccc(Nc3nc(N)n(-c4cc5c(nn4)-c4ccccc4CCC5)n3)cc2CC1 (stereo partly drawn) [Compound 218, 1-(6,7-dihydro-5H-benzo[6,7]cyclohepta[1,2-c]pyridazin-3-yl)-N^3-(7-(2-(S)-methylpyrrolidin-1-yl)-6,7,8,9-tetrahydro-5H-benzo[7]annulene-2-yl)-1H-1,2,4-triazole-3,5-diamine]
> 6.00 | Nc1nc(Nc2ccc3c(c2)CCC(N2CC[C@@H](O)C2)CC3)nn1-c1cc2c(nn1)-c1ccccc1CCC2 (stereo partly drawn) [Compound 219, 1-(6,7-dihydro-5H-benzo[6,7]cyclohepta[1,2-c]pyridazin-3-yl)-N^3-(7-(3-(R)-hydroxypyrrolidin-1-yl)-6,7,8,9-tetrahydro-5H-benzo[7]annulene-2-yl)-1H-1,2,4-triazole-3,5-diamine]
> 6.00 | C[C@@H]1CCCN1C1CCc2ccc(Nc3nc(N)n(-c4cc5c(nn4)-c4ccccc4CCC5)n3)cc2CC1 (stereo partly drawn) [Compound 220, 1-(6,7-dihydro-5H-benzo[6,7]cyclohepta[1,2-c]pyridazin-3-yl)-N^3-(7-(2-(R)-methylpyrrolidin-1-yl)-6,7,8,9-tetrahydro-5H-benzo[7]annulene-2-yl)-1H-1,2,4-triazole-3,5-diamine]
> 6.00 | Nc1nc(Nc2ccc3c(c2)CCC(N2CC[C@H](O)C2)CC3)nn1-c1cc2c(nn1)-c1ccccc1CCC2 (stereo partly drawn) [Compound 221, 1-(6,7-dihydro-5H-benzo[6,7]cyclohepta[1,2-c]pyridazin-3-yl)-N^3-(7-(3-(S)-hydroxypyrrolidin-1-yl)-6,7,8,9-tetrahydro-5H-benzo[7]annulene-2-yl)-1H-1,2,4-triazole-3,5-diamine]
